Measured values: patent US20240041976A1, “COMPOSITION AND USE” (priority 2020, published 2024)

Columns and labels:
[1] = test system: MRSA ATCC 33591; assay: microbe, parasite or virus in culture; format: cell-based, Staphylococcus aureus; conditions: Staphylococcus aureus, 24 h, read-out: MIC, single antimicrobial
Description: (§1) Antimicrobial activity was measured using the AAMP assay (Wiegand et al., 2008, Nat. Protoc., Vol. 3(2), p 163-175).
(§2) Synergy testing was done with a microtiter plate checkerboard assay as previously described (Orhan et al., 2005, J. Clin. Microbiol., Vol. 43(1), p 140-143). Briefly, equal amounts of antimicrobial A were applied on microtiter plate 1 in wells A1-H1 and then diluted two-fold to wells 2-12. Similarly, equal amounts of antimicrobial B were applied on microtiter plate 2 in wells A1-A12 and diluted two-fold in wells B-H. Volumes of 50 μl of antimicrobial A from each well of microtiter plate 1 were transferred into microtiter plate 3, except for wells H1-H12. Similarly, the same volumes were transferred from microtiter plate 2 into plate 3, except for wells A1-A8. A 100 μl volume of 25 times diluted ON bacterial culture of MRSA was transferred into each well of plate 3. A 50 μl volume of pure broth was added into each well in lines H1-H12 and A1-A8 which were used to estimate MIC values of pure substances (blank).
(§3) Antimicrobial activity was measured using the AAMP assay as described in Example 2.
(§4) Synergy testing was performed as in Example 2.

[2] = test system: E. faecium LMGT 3104; assay: microbe, parasite or virus in culture; format: cell-based, Enterococcus faecium; conditions: Enterococcus faecium, LMGT3104, read-out: MIC, single antimicrobial
Description: as §1, §2, §3, §4

[3] = test system: Methicillin-Resistant Staphylococcus aureus; format: in vivo, mice; conditions: repeat on larger groups; data not shown
Description: The experiment was performed essentially as set out in Example 2, except that the following regimes as described below, were used.
50-70 μl of cream was applied per wound.
Treatment was daily for 4 days.
The rifampicin/MP1 experiment was repeated on a larger group of mice in each category (8 mice for each of rifampicin, MP1, rifampicin+MP1, 8 mice with APO base cream 30% as used for rifampicin and MP1, 7 mice untreated). Seven mice were also treated with fucidin cream (2% fusidic acid in a cream base) as a positive control.

[4] = test system: clinical S. aureus strains from leprosy-associated skin ulcers (biofilms); assay: BOAT on clinical isolates; format: cell-based, Staphylococcus aureus; conditions: 14 clinical S. aureus isolates
Source text: Leprosy patients with plantar ulcers who were registered at LEPRA Society, BPHRC, Hyderabad, India during December 2018 through May 2019 (n=31) were enrolled into the study after obtaining an informed consent. The study protocol was approved by the Institutional Ethical Committee at LEPRA Society. A total of thirty-one wound swabs were collected using sterile pure viscose swab (Hi-media, Mumbai, India) and transported immediately for further processing to the microbiology laboratory. One swab was collected from each leprosy foot ulcer. Each swab was inoculated on Blood and McConkey agar and incubated at 37° C. overnight and the plates were examined for growth on the following day. Cultures were identified by colony morphology, Gram staining and other standard tests. […]
The BOAT assay was performed as described previously (Gronseth et al., 2017, Int. J. Pediatr. Otorhinolaryngol., Vol. 103, p 58-64) with some modifications. […] The results were then assessed by monitoring the development (or not) of red formazan (red colour), denoting the retention of metabolic activity by bacterial cells (Moussa et al., 2013, J. Mycol., Vol. 2013; Perez et al., 2010, Lett. Appl. Microbiol., Vol. 51, p 331-337). […] The amount of extracted dye, reflecting the degree of bacterial cell metabolic activity, was then quantified by spectrophotometric readings at 492 nm.

Molecule	MIC [1]	MIC [2]	antimicrobial effect in the mouse skin wound model [3]	antimicrobial activity in BOAT on clinical isolates [4]
C/C=C(\NC(=O)c1csc(-c2csc(-c3ccc4c(n3)-c3csc(n3)[C@H]([C@@H](C)O)NC(=O)c3csc(n3)[C@H](C(C)C)NC(=O)c3csc(n3)/C(=C/C)NC(=O)[C@H]([C@@H](C)O)NC(=O)c3csc-4n3)n2)n1)C(=O)NC[C@@H](C)O [MP1, micrococcin P1]	2.5 µg/mL	2.5 µg/mL	Neither MP1 nor the cream base showed any antimicrobial effect	
Garvicin KS: three-peptide leaderless bacteriocin (GarA, GarB, GarC; SEQ ID NO:6-8), peptides synthesized (peptide, listed as Lactococcus garvieae) chain 1: MGAIIKAGAKIVGKGVLGGGASWLGWNVGEKIWK chain 2: MGAIIKAGAKIIGKGLLGGAAGGATYGGLKKIFG chain 3: MGAIIKAGAKIVGKGALTGGGVWLAEKLFGGK				showed antimicrobial activity against all the strains
